# According to publication PMC8900822 (Acta Crystallographica. Section D, Structural Biology, 2022):
# What was measured:
# hCA IX = molecular target: T1, hCA IX (Homo sapiens, UniProt Q16790); test: biochemical
# T1 construct: made in house
# hCA XII = hCA XII (Homo sapiens, UniProt O43570); test: biochemical
# mtCA 02 = mtCA 02 (Mycobacterium tuberculosis, UniProt P9WPJ9); test: biochemical
# SazCA = molecular target: T2, SazCA (Sulfurihydrogenibium azorense, UniProt C1DTU5); test: biochemical
# T2 sequence (C1DTU5 19-254): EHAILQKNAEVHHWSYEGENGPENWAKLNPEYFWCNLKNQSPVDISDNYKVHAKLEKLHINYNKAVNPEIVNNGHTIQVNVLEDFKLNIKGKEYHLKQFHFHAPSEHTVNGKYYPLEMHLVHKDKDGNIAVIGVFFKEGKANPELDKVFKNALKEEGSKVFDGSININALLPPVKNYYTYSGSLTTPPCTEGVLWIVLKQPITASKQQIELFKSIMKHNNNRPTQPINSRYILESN
# hCA II = hCA II (Homo sapiens, UniProt P00918); test: biochemical
# VhCAβ = VhCAβ (Vibrio cholerae, UniProt A0A086SLX8); test: biochemical
# Chain of VhCAβ (A0A086SLX8 entry or part of it): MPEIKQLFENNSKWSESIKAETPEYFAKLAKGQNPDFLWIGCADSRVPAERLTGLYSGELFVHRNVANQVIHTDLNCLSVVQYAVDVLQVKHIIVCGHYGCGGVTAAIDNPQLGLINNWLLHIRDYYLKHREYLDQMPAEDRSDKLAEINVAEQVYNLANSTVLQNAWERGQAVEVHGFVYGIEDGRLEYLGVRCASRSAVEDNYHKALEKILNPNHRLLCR
# BpsCAγ = BpsCAγ (Burkholderia pseudomallei, UniProt Q63SQ4); conditions: pH 8.3
# Chain of BpsCAγ (Q63SQ4 1-174): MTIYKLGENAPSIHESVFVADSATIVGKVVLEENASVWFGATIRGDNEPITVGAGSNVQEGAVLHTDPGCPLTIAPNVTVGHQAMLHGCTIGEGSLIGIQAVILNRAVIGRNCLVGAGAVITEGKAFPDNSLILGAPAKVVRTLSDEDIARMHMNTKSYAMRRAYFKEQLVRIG
# SmCA = molecular target: T3, SmCA (Schistosoma mansoni, UniProt A0A4Y5UX87, S271R); test: biochemical
# T3 sequence (A0A4Y5UX87 21-298 S271R): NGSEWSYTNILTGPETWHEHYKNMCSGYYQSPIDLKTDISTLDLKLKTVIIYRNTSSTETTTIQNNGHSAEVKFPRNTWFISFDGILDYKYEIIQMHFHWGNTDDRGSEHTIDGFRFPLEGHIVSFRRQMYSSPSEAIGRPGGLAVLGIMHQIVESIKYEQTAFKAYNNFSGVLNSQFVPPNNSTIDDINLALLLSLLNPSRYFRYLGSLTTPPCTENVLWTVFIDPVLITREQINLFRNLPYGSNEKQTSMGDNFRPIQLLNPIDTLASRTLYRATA
# hCA I = hCA I (Homo sapiens, UniProt P00915); test: Stopped-flow CO2-hydration assay, hCA I
# Chain of hCA I (P00915 whole entry): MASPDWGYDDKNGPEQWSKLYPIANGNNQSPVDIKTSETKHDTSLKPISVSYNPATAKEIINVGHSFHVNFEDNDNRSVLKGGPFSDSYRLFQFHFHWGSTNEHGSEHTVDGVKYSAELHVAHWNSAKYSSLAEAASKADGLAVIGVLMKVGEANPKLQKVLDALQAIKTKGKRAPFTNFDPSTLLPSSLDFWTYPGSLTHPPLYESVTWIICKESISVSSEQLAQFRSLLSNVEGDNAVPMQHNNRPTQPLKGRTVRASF
# carbonic anhydrase (CA) = tested on: carbonic anhydrase (CA); parameters: method as in Lankas & Peter, 1992; conditions: in vivo study, ref Lankas & Peter, 1992; cited from earlier work
# BpsCAβ = BpsCAβ (Burkholderia pseudomallei, UniProt Q63Y17); conditions: pH 8.3
# Chain of BpsCAβ (Q63Y17 1-256): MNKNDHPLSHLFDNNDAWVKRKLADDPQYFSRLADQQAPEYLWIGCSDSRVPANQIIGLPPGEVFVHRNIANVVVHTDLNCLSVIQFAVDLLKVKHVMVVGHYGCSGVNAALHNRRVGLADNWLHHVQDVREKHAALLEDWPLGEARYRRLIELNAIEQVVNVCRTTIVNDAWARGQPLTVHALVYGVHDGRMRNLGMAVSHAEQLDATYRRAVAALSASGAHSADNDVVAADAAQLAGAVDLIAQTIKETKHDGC
# TweCA = molecular target: T4, TweCA (Thalassiosira weissflogii, UniProt Q5U9J1); test: biochemical
# T4 sequence (Q5U9J1 1-281): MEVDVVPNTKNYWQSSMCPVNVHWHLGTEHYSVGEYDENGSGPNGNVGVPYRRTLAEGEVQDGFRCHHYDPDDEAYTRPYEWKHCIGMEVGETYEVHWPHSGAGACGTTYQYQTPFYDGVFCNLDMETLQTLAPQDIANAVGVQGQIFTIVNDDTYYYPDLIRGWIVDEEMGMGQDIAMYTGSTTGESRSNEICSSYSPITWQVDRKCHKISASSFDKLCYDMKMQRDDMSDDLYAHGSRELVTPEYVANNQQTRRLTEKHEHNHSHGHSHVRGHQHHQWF
# mtCA 03 = molecular target: T5, mtCA 03 (Mycobacterium tuberculosis, UniProt P96878); test: biochemical
# T5 sequence (P96878 550-764): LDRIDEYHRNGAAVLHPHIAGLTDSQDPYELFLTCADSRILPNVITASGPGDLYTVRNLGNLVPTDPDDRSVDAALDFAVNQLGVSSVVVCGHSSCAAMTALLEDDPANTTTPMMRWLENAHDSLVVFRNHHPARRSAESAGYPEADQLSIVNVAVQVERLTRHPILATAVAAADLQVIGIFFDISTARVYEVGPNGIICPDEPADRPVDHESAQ
# VhCAα = VhCAα (Vibrio cholerae, UniProt Q9KMP6); test: biochemical
# Chain of VhCAα (Q9KMP6 entry or part of it): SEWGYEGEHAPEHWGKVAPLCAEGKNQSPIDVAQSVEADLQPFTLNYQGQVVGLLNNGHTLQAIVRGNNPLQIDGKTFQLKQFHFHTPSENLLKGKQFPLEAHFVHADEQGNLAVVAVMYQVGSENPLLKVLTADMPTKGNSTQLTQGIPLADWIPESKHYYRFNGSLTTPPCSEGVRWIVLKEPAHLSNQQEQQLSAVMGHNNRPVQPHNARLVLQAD
# Chain of hCA XII (O43570 25-354): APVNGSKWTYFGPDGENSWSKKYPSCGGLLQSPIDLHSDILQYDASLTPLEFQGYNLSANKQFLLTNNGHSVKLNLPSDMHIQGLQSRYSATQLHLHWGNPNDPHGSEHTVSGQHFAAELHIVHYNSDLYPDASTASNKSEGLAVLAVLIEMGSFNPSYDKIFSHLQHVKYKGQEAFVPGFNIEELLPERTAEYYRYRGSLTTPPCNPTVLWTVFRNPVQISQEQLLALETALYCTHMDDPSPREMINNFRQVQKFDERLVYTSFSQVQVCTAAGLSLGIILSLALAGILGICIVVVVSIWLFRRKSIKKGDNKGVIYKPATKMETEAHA
# Chain of mtCA 02 (P9WPJ9 whole entry, looked up): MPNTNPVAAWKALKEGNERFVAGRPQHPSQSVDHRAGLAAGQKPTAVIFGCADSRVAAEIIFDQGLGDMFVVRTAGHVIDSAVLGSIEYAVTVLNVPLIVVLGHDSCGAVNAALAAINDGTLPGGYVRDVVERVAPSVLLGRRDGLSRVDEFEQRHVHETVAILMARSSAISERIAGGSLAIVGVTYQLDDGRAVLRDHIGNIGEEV
structure (smiles),measurement,setting,value
"Nc1cc(C(Cl)=C(Cl)Cl)c(S(N)(=O)=O)cc1S(N)(=O)=O [Clorsulon, 4-Amino-6-(1,2,2-trichlorovinyl)benzene-1,3-disulfonamide]",Ki,hCA IX,0.138 µM
same,Ki,hCA XII,0.078 µM
same,Ki,mtCA 02,0.0029 µM
same,Ki,SazCA,0.0077 µM
same,Ki,hCA II,0.0591 µM
same,Ki,VhCAβ,0.906 µM
same,Ki,BpsCAγ,2.5 µM
same,Ki,SmCA,0.225 µM
same,Ki,hCA I,4.52 µM
same,carbonic anhydrase (CA) inhibitory activity in rats,carbonic anhydrase (CA),weak
same,Ki,BpsCAβ,0.223 µM
same,Ki,TweCA,0.0958 µM
same,Ki,mtCA 03,0.828 µM
same,Ki,VhCAα,0.292 µM
